We go through one molecule from ChEMBL document CHEMBL5550186, “Exploring the Potential of Cyclic Peptidyl Antitumor Agents Derived from Natural Macrocyclic Peptide Phakellistatin 13” (J Med Chem, 2024).

The subject of data set [1] is HepG2. As to the kind of experiment: Induction of morphological changes in human HepG2 cells assessed as decrease in cell adhesion at 40 uM measured after 12 to 24 hrs by fluorescence inverted microscopic analysis. The class given is functional, cell-based. The settings on record: time 12-24 hrs.
A short description of data set [2]: Toxicity in Balb/c mouse assessed as effect on tumor at 6 mg/kg, iv measured after 14 days by H and E staining based analysis. Format: organism-based. The settings on record: in vivo, 336 h, time 14 day.
Data set [3] in a line: Upregulation of TRAF1 expression level in human HepG2 cells assessed as fold change by KEGG enrichment analysis. The class given is functional.
The nature of data set [4]: Upregulation of […] expression level in human HepG2 cells assessed as fold change by KEGG enrichment analysis. Format: functional.
The test system of data set [5] is HepG2. The experiment in a line: Induction of apoptosis in human HepG2 cells assessed as viable cells at 10 uM incubated for 48 hrs by annexin V-FITC/PI staining based flow cytometry analysis (reference value: 99.3%). Format: functional. The settings on record: read-out: Activity. For orientation: In flow cytometry, cells or beads pass a laser one at a time.
Data set [6] concerns Cell membrane. As to the kind of experiment: Induction of mitochondrial membrane potential loss in human HepG2 cells assessed as decrease in fluorescence at 20 uM measured after 48 hrs by Rhodamine 123 staining based flow cytometry (reference value: 66.8%). More on the design: scale not given: the % may be the effect or the level left. The class given is cell membranes.
The nature of data set [7]: Downregulation of NOTCH3 expression level in human HepG2 cells assessed as fold change by KEGG enrichment analysis. The class given is functional.
The subject of data set [8] is HepG2. As to the kind of experiment: Upregulation of p53 level in human HepG2 cells at 5 to 20 uM measured after 48 hrs by Western blot analysis. Format: functional, cell-based. Conditions: dose 5-20 µM. On the technique in general: A western blot detects proteins with antibodies after separation by electrophoresis.
For data set [9], the system named is HepG2. As to the kind of experiment: Induction of cell cycle arrest in human HepG2 cells incubated for 48 hrs by PI staining based flow cytometry analysis. Format: functional. Conditions: dose 5-20 µM.
The subject of data set [10] is HepG2. As to the kind of experiment: Induction of cell cycle arrest in human HepG2 cells assessed as accumulation of cells at <2N phase at 20 uM incubated for 48 hrs by PI staining based flow cytometry analysis (reference value: 0.027%). Format: functional.
Data set [11] has as its system HepG2. As to the kind of experiment: Induction of morphological changes in human HepG2 cells assessed as deterioration of cell membrane integrity at 40 uM measured after 12 to 24 hrs by fluorescence inverted microscopic analysis. The settings on record: time 12-24 hrs. The class given is functional, cell-based.
Data set [12] in a line: Downregulation of DKK1 expression level in human HepG2 cells assessed as fold change by KEGG enrichment analysis. The class given is functional.
In data set [13] the test system is MDA-MB-231. As to the kind of experiment: Antiproliferative activity against human MDA-MB-231 cells incubated for 48 hrs by MTT assay. Conditions: MDA-MB-231, 48 h. The class given is functional, cell-based. A general note: Formazan colour is commonly taken as a measure of viable cells.
Data set [14] relates to HepG2. The experiment in a line: Induction of cell cycle arrest in human HepG2 cells assessed as accumulation of cells at <2N phase at 10 uM incubated for 12 hrs by PI staining based flow cytometry analysis (reference value: 0.027%). Format: functional.
Data set [15] deals with HepG2. As to the kind of experiment: Induction of cell cycle arrest in human HepG2 cells assessed as assessed as accumulation of cells at >G2/M phase at 10 uM incubated for 12 hrs by PI staining based flow cytometry analysis (reference value: 28.0%). The class given is functional.
Data set [16] in a line: Upregulation of SOCS1 expression level in human HepG2 cells assessed as fold change by KEGG enrichment analysis. The class given is functional.
The nature of data set [17]: Upregulation of GADD45A expression level in human HepG2 cells assessed as fold change by KEGG enrichment analysis. The class given is functional.
Data set [18] is described as follows: Upregulation of DDIT3 expression level in human HepG2 cells assessed as fold change by KEGG enrichment analysis. The class given is functional.
In data set [19] the test system is HepG2. As to the kind of experiment: Induction of cell cycle arrest in human HepG2 cells assessed as accumulation of cells at <2N phase at 5 uM incubated for 48 hrs by PI staining based flow cytometry analysis (reference value: 0.027%). The class given is functional.
Data set [20] concerns 4T1. As to the kind of experiment: Antitumor activity in mouse 4T1 cells xenografted in Balb/c mouse assessed as inhibition of tumor growth at 6 mg/kg, iv measured every two days for 14 days. Conditions: time 14.0 day. The class given is functional, organism-based.
Data set [21] concerns HepG2. The experiment in a line: Induction of autophagy in human HepG2 cells assessed as increase in formation of autophagosomes at 5 to 10 uM incubated for 24 hrs by acridine orange staining based laser confocal microscopic analysis. The class given is functional, cell-based. Conditions: dose 5-10 µM.
For data set [22], the system named is HepG2. The experiment in a line: Induction of apoptosis in human HepG2 cells assessed as necrotic cells at 10 uM incubated for 48 hrs by annexin V-FITC/PI staining based flow cytometry analysis (reference value: 0%). Format: functional.
A short description of data set [23]: Upregulation of CXCL2 expression level in human HepG2 cells assessed as fold change by KEGG enrichment analysis. Format: functional.

A word on the IC50: it is the concentration needed to halve the response being measured.

Activity calls are given as the source filed them. No cut-off for these calls is given here.

Turning to `CC(C)C[C@H]1NC(=O)[C@H]([C@@H](C)OCc2ccccc2)NC(=O)[C@H]2CCCN2C(=O)CN2C(=O)c3ccccc3[C@@]2(O)CN(Cc2ccccc2)C(=O)[C@H](Cc2ccccc2)NC(=O)[C@H]2CCCN2C(=O)[C@H](Cc2c[nH]c3ccccc23)NC1=O`, the outcome in data set [1], in data set [8], in data set [11], in data set [20] and in data set [21] was Active. Also, the Activity result in data set [2] is “Non-Toxic”; in data set [6], 18.4%; in data set [9], “Dose-Dependent Effect”; in [10], 28.1%; in [14], 36.2%; in data set [15], 4.68%. Besides, the Activity in [19] is on record as 37.3%; in data set [22], 0%. Further, the “fold change (FC)” value was 1.094 in data set [3]; 1.218 in data set [4]; -1.52 in data set [7]; -3.288 in data set [12]; 1.707 in [16]; 1.519 in [17]. Also, the “fold change (FC)” value in data set [18] stood at 1.968; in data set [23] it was 1.751. Also, in [5], the viability at 10 µM was found to be 68.1%. Also, in data set [13], the midpoint of inhibition, the IC50, lay at 12.8 µM.
